Source: paper PMC5460220, “Dual PI3K and Wnt pathway inhibition is a synergistic combination against triple negative breast cancer” (NPJ Breast Cancer, 2017)
Where two headings read alike, the source gives them in different places.

What was measured:
advanced TNBC = system: advanced TNBC; set-up: method as in ref 17 = [17]; 17. Nanda, R. A phase Ib study of pembrolizumab (MK-3475) in patients with advanced triple- negative breast cancer. SABCS Annual. Meeting. Oral. Presentation . (2014).; conditions: phase Ib trial; cited from earlier work
metastatic TNBCs = system: metastatic TNBCs; set-up: method as in ref 16 = [16]; 16. Dirix, L. Avelumab (MSB0010718C), an anit-PD-L1 antibody, in patients with locally advanced or metastatic breast cancer: a phse Ib JAVELIN solid tumor trial. SABCS Annual. Meeting. Oral. Presentat; conditions: patients with metastatic TNBCs, phase Ib JAVELIN trial; cited from earlier work
tumor growth = system: tumor growth; set-up: method as in PMID 24277854; conditions: recently published data; cited from earlier work
[1] = system: TNBC patient-derived xenograft (PDX); assay: TNBC PDX survival study; type: in vivo, NSG mice; conditions: n = 10 per group, once-a-day for a maximum of 28 days, buparlisib 30 mg/kg, WNT974 3 mg/kg
AXIN2 RNA = assay: qPCR for AXIN2 RNA in PD study tumors; type: in vivo, NSG mice; conditions: TMD-231 xenograft tumors, 7 days of dosing
Procedure: (§1) To further assess preliminary efficacy and target modulation, a PD experiment was performed. […] Tumors were allowed to grow for 29 days to an average size of ~350 mm^3. […] After only 7 days of treatment, we observed a ~40% decrease in tumor volume with the combination, while tumors actually grew slightly in the face of single agent therapy, again, giving further observations of synergy (Fig. 4a). On the 7th day, the mice had plasma drawn, and then euthanized and the tumor removed. Measurement of buparlisib and WNT974 concentrations in tumor tissue confirmed that these agents were reaching the tumor (Fig. 4b). To assess molecular target modulation, RNA and protein was isolated from each of the tumors in our PD study and biomarker analysis was performed. […] (Supplementary Fig. 3a). […] Target modulation was assessed using qPCR for Axin2 (a marker of WNT974), and western blot for porcupine and phospho-Akt […] (a marker of buparlisib activity). qPCR was performed using Taqman assays (Life Technologies). Protein was isolated after 48 h of treatment in biological triplicates using radioimmunoprecipitation assay buffer and quantified with bicinchoninic acid assay (Thermo Fisher). Protein was run on bis-tris gels (Life Technologies) and transferred to polyvinylidene fluoride membrane. […] Quantification of blots was performed using ImageJ (NIH) and statistical analysis using GraphPad.

TMD-231 lung metastases = assay: quantification of lung metastases, Ki67 staining; type: in vivo, NSG mice; conditions: TMD-231 xenograft, PD study lungs; combination p = 0.0196
Description: The TMD-231 cells used in our PD study have a known propensity to metastasize to the lung.[29] To assess the effect of the combination therapy on the growth of lung metastases, lung tissues from our PD study were stained and analyzed for metastatic burden. […] Lungs were extracted, fixed in 10% formalin, and processed in paraffin. Five-micrometer sections were H&E stained, deparaffinized, blocked, and stained using primary anti-human Ki67 antibody (DAKO, Carpinteria, California). The Aperio whole slide digital imaging system was used for imaging (Leica, Wetzlar, Germany). Using the Aperio ScanScope CS, ×20 images were taken at scan times ranging from 1.5 to 2.25 min. The total nuclear labeling index (Ki67) was generated using the Aperio ImageScope standard positive pixel algorithm. The Image Analysis software was used to calculate the percent of positive pixels (brown staining) in one large cross section from each lung.

[2] = known; cited from earlier work
[3] = quantification of drug in resected tumors, HPLC-MS/MS; type: in vivo, NSG mice; conditions: NSG, mouse, tumor, 7 days once daily, average with standard deviation; for concentration at 1 h: 1 h post the last dose; for concentration at 7 h: 7 h post the last dose
Procedure: After 7 days of treatment, we observe a ~40% decrease in tumor volume. b Quantification of drug in tumors resected from mice treated in our PD study. Half of the tumors were resected at 1 h post the last dose, and the other half 7 h post the last dose. Using Highperformance liquid chromatography-mass spectrometry (HPLC-MS/MS), buparlisib and WNT974 were quantified as nanograms of drug per gram of tumor tissue (ng/g). Average values with standard deviation are presented. LOQ limit of quantitation c As TMD-231 cells have a known propensity to metastasize to the lung, we assessed the effect of the combination therapy on the growth of lung metastases.

phospho-AKT = assay: western blot for phospho-AKT in PD study tumors; type: in vivo, NSG mice; conditions: TMD-231 xenograft tumors, 7 days of dosing
Procedure: as §1

porcupine = system: porcupine; set-up: method as in PMID 24277854; conditions: recently published data; cited from earlier work
[4] = system: phosphorylated-AKT (p-AKT Ser 473); assay: western blot for p-AKT in TNBC cell lines; type: cell-based, human; conditions: MDA-MB-231, HCC70 and HCC1143; 48 h treatment
Procedure: (§2) To further confirm the induction of porcupine after buparlisib treatment, but at the protein level, we performed western blotting for porcupine and p-AKT before and after treatment with buparlisib.
(§3) Target modulation was assessed using qPCR for Axin2 (a marker of WNT974), and western blot for porcupine and phospho-Akt Ser 473 (a marker of buparlisib activity). qPCR was performed using Taqman assays (Life Technologies). Protein was isolated after 48 h of treatment in biological triplicates using radioimmunoprecipitation assay buffer and quantified with bicinchoninic acid assay (Thermo Fisher). Protein was run on bis-tris gels (Life Technologies) and transferred to polyvinylidene fluoride membrane. Primary pAKT-Ser 473 antibody (Cell Signaling Technology, Beverly, Massachusetts), β-actin (Cell Signaling Technology), and PORCN (Abcam, Cambridge, England) was incubated overnight with subsequent 1-hour incubation with horseradish peroxidase-conjugate secondary antibody. Staining was performed using a chemiluminescent substrate (ThermoFisher). Imaging was performed using an LAS-4000 Luminescent Image Analyzer (Fujifilm, Tokyo, Japan). Quantification of blots was performed using ImageJ (NIH) and statistical analysis using GraphPad.

[5] = system: porcupine (PORCN) protein; assay: western blot for porcupine in TNBC cell lines; type: cell-based, human
Procedure: as §2, §3

porcupine (PORCN) = assay: RNA-seq of MDA-MB-231 cells before and after buparlisib treatment; type: cell-based, human; conditions: MDA-MB-231, RNA-seq before and after treatment
Procedure: RNA-sequencing for the buparlisib treated MDA-MB-231 cell line experiment was performed as follows. To enrich for the non-ribosomal RNA transcriptome, RNA samples were first depleted of ribosomal RNA using the Low Input Ribominus Kit (Life Technologies). ERCC spike-in controls (Pool 1) were introduced for all samples (Life Technologies). RNA libraries were constructed using the Ion Total RNA-Seq Kit for AB Library Builder System (Life Technologies) per manufacturer’s instructions. Libraries were barcoded using the IonXpress RNA-Seq Barcode 1–16 Kit (Life Technologies), and libraries were quantified using the Agilent TapeStation 2200 along with the DNA D1K Kit. Libraries were diluted to a concentration of 11 pM prior to templating and emulsion polymerase chain reaction (PCR) using the Ion Template OT2 200 v2 kit along with Ion OneTouch 2 instrument (Life Technologies). Templates were quantified using the IonSphere Quality Control Kit (Life Technologies). Samples were sequenced on an Ion Proton Next-Generation Sequencer using the Ion Proton PI chip and the Ion PI Sequencing 200 v2 kit (Life Technologies). Samples were sequenced using two RNA-seq libraries/samples per chip to an average of 30–40 million reads per sample. Reads were mapped to the human genome (hg19) using the STAR algorithm.[36] Aligned BAM files were then imported into Partek Genomics Suite. […]

[6] = 3 mg/kg, read-out: WNT974 in tumor tissue
[7] = 30 mg/kg, read-out: Buparlisib in tumor tissue

In the case of “pembrolizumab: immune checkpoint therapy tested in a phase Ib trial in advanced TNBC”, the overall response rate (advanced TNBC) is given as 18.5%.
For avelumab: an anti-PD-L1 antibody, the overall response rate (metastatic TNBCs) is listed as 8.6%.
For `Cc1cc(-c2ncc(CC(=O)Nc3ccc(-c4cnccn4)cn3)cc2C)ccn1` [WNT974], the “inhibition of tumor growth in vivo” value (tumor growth) is given as “significant inhibition”, the “mice survived to the end of the study” value [1] is given as 0% and the “AXIN2 RNA levels in tumors” value (AXIN2 RNA) is given as “decreased”. For the same compound, the “lung metastases compared with the control group” value (TMD-231 lung metastases) was “small but non-significant decreases”, the “toxicity / most common side effect in humans” value [2] was “dysgeusia” and the concentration at 1 h [3, 6] was 19.2 ± 1.11 ng/g. The concentration at 7 h [3, 6] was 8.34 ± 0.33 ng/g, the “inhibition of phospho-AKT in tumors” value (phospho-AKT) was “not” and the “inhibition of its target (porcupine)” value (porcupine) was “potent inhibition”.
For `Nc1cc(C(F)(F)F)c(-c2cc(N3CCOCC3)nc(N3CCOCC3)n2)cn1` [buparlisib], the “mice survived to the end of the study” value [1] was 40%, the phospho-AKT after treatment [4] was “potent inhibition” and the “PORCN protein, quantified western blot” value ([5]; HCC70, 10 x IC50 buparlisib, p-value 0.0084) was “significant increase”. The “PORCN protein, quantified western blot” value ([5]; HCC1143, IC50 buparlisib, p-value 0.013) was “significant increases”, the “PORCN protein, quantified western blot” value ([5]; MD-MB-231, IC50 buparlisib, p-value 0.0072) was “significant increases” and the “lung metastases compared with the control group” value (TMD-231 lung metastases) was “small but non-significant decreases”. For the same compound, the “toxicity / most common side effect in humans” value [2] was “depression, anxiety, pneumonitis, and liver toxicity”, the concentration at 1 h [3, 7] was 3590 ± 898 ng/g and the concentration at 7 h [3, 7] was 2960 ± 683 ng/g. For the same compound, the “PORCN over-expression after PI3K inhibition” value (porcupine (PORCN)) was ~ 8 fold and the “inhibition of phospho-AKT in tumors” value (phospho-AKT) was “observed”.
